Each structure is given as a SMILES string.

Consider five molecules from ChEMBL document CHEMBL1125549, “Computer-aided mapping of the beta-adrenoceptor. 1. Explanation for effect of para substitution on blocking activity at the beta-1-adrenoceptor” (J Med Chem, 1992).

The target of test [1] is T1, Beta-1 adrenergic receptor (Cavia porcellus, UniProt B0FL73). Put plainly: Activity at beta-1 adrenergic receptor. As to conditions: read-out: pA2 (converted).
In test [2] the target is T1, Beta-1 adrenergic receptor. The test can be described thus: Compound was tested for the biological activity at the Beta-1 adrenergic receptor. The note with it: read-out: pA2 (converted).

T1 sequence (B0FL73 whole entry): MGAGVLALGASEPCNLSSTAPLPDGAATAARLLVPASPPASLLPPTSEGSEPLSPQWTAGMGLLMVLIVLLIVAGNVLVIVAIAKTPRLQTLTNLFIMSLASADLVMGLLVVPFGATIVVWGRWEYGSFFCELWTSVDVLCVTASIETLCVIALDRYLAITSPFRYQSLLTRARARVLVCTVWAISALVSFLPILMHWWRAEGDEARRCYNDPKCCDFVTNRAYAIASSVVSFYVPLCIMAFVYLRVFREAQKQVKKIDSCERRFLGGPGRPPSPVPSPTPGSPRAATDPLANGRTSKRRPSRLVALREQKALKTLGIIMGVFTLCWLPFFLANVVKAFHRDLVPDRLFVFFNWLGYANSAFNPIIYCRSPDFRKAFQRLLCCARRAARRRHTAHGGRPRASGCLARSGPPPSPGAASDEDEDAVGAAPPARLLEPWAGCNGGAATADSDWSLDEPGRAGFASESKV

Regarding `CC(C)NCC(O)COc1ccc(-c2nc(-c3cccs3)c[nH]2)cc1` (stereo not given), the Kb in test [1] is 1.26 nM. As for `COCCOc1ccc(OCC(O)CNC(C)C)cc1` (stereo not given), the Kb in test [2] is 398 nM. With `CCc1ccc(OCC(O)CNC(C)C)cc1` (stereo not given), the Kb in test [1] is 63.1 nM. Still for that read-out and setting: with `CC(C)NCC(O)COc1ccc(-c2ncc[nH]2)cc1` (stereo not given) the figure was 25.1 nM.

For the molecule `CC(C)NCC(O)COc1ccc(OCCOCCc2ccc(F)cc2)cc1` (stereo not given), in test [1], the Kb is 6.31 nM.
